# “Also recorded” adds a separate entry of the source. Like-named read-outs stand apart in the source and are kept apart here.
# Assays:
# [1] = test system: MCF-7 cells (human breast adenocarcinoma); assay: Trypan blue exclusion assay, cytostatic activity, MCF-7; type: cell-based; conditions: MCF7, incubation 48h, 3 experiments, read-out: ID50 (the source's name)
# [2] = test system: CEM vinblastin resistant cells; assay: Trypan blue exclusion assay, cytostatic activity, CEM vinblastin resistant; type: cell-based; conditions: Homo sapiens; CEM vin resistant; incubation 48h; 4 experiments; read-out: ID50 (the source's name)
# [3] = test system: Raji cells (human Burkitt lymphoma); assay: Trypan blue exclusion assay, cytostatic activity, Raji; type: cell-based; conditions: incubation 24h, 4 experiments, read-out: ID50 (the source's name)
# [4] = test system: KB cells (human oral epidermoid carcinoma); assay: Trypan blue exclusion assay, cytostatic activity, KB; type: cell-based; conditions: incubation 48h, 3 experiments, read-out: ID50 (the source's name)
# [5] = test system: C1300 cells (mouse neuroblastoma); assay: In vitro ID50 in C1300 mouse neuroblastoma cells; type: cell-based; conditions: Neuroblastoma cell; 48 hours of continuous exposure; preliminary data
# Protocol: C1300 cells (mouse neuroblastoma), a murine tumor cell model which is sensitive to HHC were evaluated.
# MCF-7 cells = assay: Fluorescence activated cell sorting (FACS), cell cycle phase; type: cell-based, human; conditions: for cell cycle phase distribution: 48 hours
# Protocol: Fluorescence activated cell sorting (FACS) was used to determine what percentage of cells could be found in the designated cell cycle phase after 48 hours of continuous HHC exposure. There are four distinct phases in the cell cycle which lead to duplication of the cell and its genetic material. In the G0/G1 phase the cell is at rest or is performing miscellaneous biosynthetic functions. During the S phase, DNA synthesis occurs which leads to replication of the chromosomes. G2 is the pre-mitotic interval while the M phase is the time during which the cell divides.
# MCF-7 cells were exposed to concentrations of 1.5 μM and 25 μM of HHC, and DMSO. DMSO had no significant effect on the cell cycle, with a profile almost identical to that of the "no drug" control.
# Staphylococcus aureus = assay: Growth of Staphylococcus aureus in LB broth by OD600 (FIG. 1); type: cell-based; conditions: 0.5-25 μM
# Protocol: A single colony of Staphylococcus aureus was grown in 2 ml of Luria-Bertani(LB) broth overnight at 37° C. in a bacterial shaker with vigorous shaking. 0.5 ml of the culture was transferred to 250 ml LB and allowed to grow at 37° C. until the OD600 (optical density) reading was about 0.2 (a reading of 1 OD600 indicates a cell concentration of approximately 8×10^8 cells/ml). […] No-drug and DMSO solvent were used as controls. Aliquots of the bacterial culture were taken every 2 hours to obtain the OD600 reading.
# Staphylococcus Aureas = assay: Minimum inhibitory concentration, Staphylococcus aureus; type: cell-based
# [6] = test system: MRSA (Methicillin resistant Staphylococcus A.); assay: Minimum inhibitory concentration, MRSA; type: cell-based, Staphylococcus aureus
# [7] = test system: Multidrug resistant Staphylococcus (except to Vancomycin); assay: Minimum inhibitory concentration, multidrug resistant Staphylococcus; type: cell-based
# [8] = test system: VRE (Vancomycin resistant enterococcus); assay: Minimum inhibitory concentration, VRE; type: cell-based
# [9] = test system: M. tuberculosis (ATCC 27294); assay: BACTEC drug susceptibility, M. tuberculosis; type: cell-based; conditions: Mycobacterium tuberculosis, ATCC27294
# [10] = Determination of maximal tolerated dose (MTD), single intraperitoneal injection; conditions: mouse, in vivo, ip
# Protocol: (§1) Eight groups of BDF1 mice (5 animals/group) were used to determine a maximal tolerated dose (MTD) for HHC.
# (§2) All mice were weighed, the weight being used to determine blood volume for each animal. The amount of drug necessary to achieve a theoretical concentration of drug in the animal (e.g, 50, 100, 150 μM etc.) was calculated based on the formula: blood volume=8% body weight of the animal. Drug solutions were made using DMSO as the solvent and a single intraperitoneal injection of a volume of 100-120 μl was given. […] Based on the above, the MTD is determined to be at 200 μM (~6.5 mg/kg). To confirm the MTD, it is necessary to dose the animals with the predetermined MTD once a day for consecutive days following established experimental treatment times (i.e., 5 days for in vivo tumor inhibition studies).
# BDF1 mice = assay: as above; conditions: mouse, in vivo, ip
# Protocol: as §1, §2
# [11] = test system: VRE (Vancomycin Resistant Enterococcus faeclum); conditions: threshold not given
# Listeria monocytogenes = conditions: U.S. Pat. Nos. 5,286,506; 5,455,038; cited from earlier work
# [12] = test system: VRE (Vancomycin Resistant Enterococcus faeclum); assay: microbe, parasite or virus in culture
# Protocol: (§3) HHC was also tested for effectiveness against various bacterial isolates obtained from human subjects.
# E. Coli = assay: Minimum inhibitory concentration, E. coli; conditions: Escherichia coli
# Pseudomonas = assay: Minimum inhibitory concentration, Pseudomonas
# [13] = test system: MRSA (Methicillin Resistant Staphylococcus aureus); assay: Patient isolates evaluated for antibiotic sensitivity, MRSA; conditions: for antibiotic sensitivity: threshold not given
# [14] = test system: OxaRSA (Oxacillin Resistant Staphylococcus aureus); assay: Patient isolates evaluated for antibiotic sensitivity, OxaRSA
# Protocol: as §3
# [15] = Staphylococcus aureus, read-out: [HHC] (MIC)
compound,measurement,setting,value
"CC(C)CCC1=C(O)C(C(=O)C(C)C)=C(O)C(CCC(C)C)(CCC(C)C)C1=O [HHC, hexahydrocolupulone]",IC50,[1],1.23 µM
same,IC50,[2],2.61 µM
same,IC50,[3],2.19 µM
same,IC50,[4],0.85 µM
same,IC50,[5],~1.94 µM
same,cell cycle phase distribution,MCF-7 cells; 1.5 μM HHC,increase the number of cells in G0/G1 and decrease the number of cells in S phase
same,cell cycle phase distribution,MCF-7 cells; 25 μM HHC,decrease in the number of cells in G0/G1 and an increase in the number of cells in S phase
same,effect upon G1-S phase transition,MCF-7 cells; FACS,apparent effect upon the G1-S phase transition of the cell cycle; also recorded: has an effect upon the G1-S phase transition of the cell cycle
same,inhibition of bacterial growth (OD600),Staphylococcus aureus,effective inhibitor of bacterial growth
same,MIC,"Staphylococcus Aureas; Staphylococcus Aureas, read-out: MIC",5 µM
same,MIC,"Staphylococcus Aureas; read-out: MIC, HHC positive control",2.03 mg/L
same,MIC,[6]; MRSA,2.5 µM
same,cross resistance with other antibiotics,[6]; drug resistant MRSA,HHC is not
same,MIC,[7],2.5 µM
same,cross resistance with vancomycin,[8],not cross resistant with vancomycin
same,MIC,[8]; Enterococcus,5 µM
same,inhibition at 50 µM,"[9]; 50 μM, read-out: inhibition of tuberculosis growth",> 99%
same,inhibition at 100 µM,"[9]; 100 μM, read-out: inhibition of TB growth",100%
same,MTD,[10],~6.5 mg/kg
same,maximal tolerated dose (MTD),BDF1 mice,200 µM
same,antibiotic sensitivity,[11]; patient A,S
same,antibiotic sensitivity,[11]; patient B,S
same,antibiotic sensitivity,[11]; patient C,S
same,growth inhibition of food pathogens,Listeria monocytogenes,"can inhibit the growth of food pathogens, such as Listeria monocytogenes"
same,MIC,"[12]; read-out: [HHC] (MIC), patient A, VRE",1.01 mg/L
same,MIC,"[12]; read-out: [HHC] (MIC), patient B, VRE",4.06 mg/L
same,MIC,"[12]; read-out: [HHC] (MIC), patient C, VRE",2.03 mg/L
same,MIC,E. Coli,> 100 µM
same,MIC,"E. Coli; read-out: MIC, HHC negative control",100 mg/L
same,MIC,Pseudomonas,> 100 µM
same,MIC,[13]; [15],1.01 mg/L
same,antibiotic sensitivity,[13]; patient D,S
same,[HHC] (MIC),[13]; patient E,1.015 mg/L
same,antibiotic sensitivity,[13]; patient E,S
same,[HHC] (MIC),[13]; patient F,1.015 mg/L
same,antibiotic sensitivity,[13]; patient F,S
same,MIC,[14]; [15],1.01 mg/L
same,antibiotic sensitivity,"[14]; patient G, OxaRSA, threshold not given",S

# From patent publication US5827895A, “Hexahydrolupulones useful as anticancer agents” (Regents of the University of Minnesota, priority 1996, dated 1998)
